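Briefly, cells in 96-well plates were exposed to five compound concentrations for 48 h, and endpoints were estimated by linear interpolation. Here, GI50 denotes the concentration required for 50% inhibition of growth.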 Calls of active or inactive are those of the source. No stated cut-off is given here; in the data, active = GI50 up to about 1.1 µM and inactive = higher.
How the values were obtained:
Test in all cases: NCI anticancer screen, dose series, 48 h
ACHN = test system: ACHN
HOP-92 = test system: HOP-92
A549 = test system: A549
HCC 2998 = test system: HCC 2998
SW-620 = test system: SW-620
DU-145 = test system: DU-145
COLO 205 = test system: COLO 205
SK-OV-3 = test system: SK-OV-3
OVCAR-4 = test system: OVCAR-4
MCF7 = test system: MCF7
SN12C = test system: SN12C
786-0 = test system: 786-0
HCT-116 = test system: HCT-116
SF-539 = test system: SF-539
KM12 = test system: KM12
CCRF-CEM = test system: CCRF-CEM
T47D = test system: T47D
OVCAR-3 = test system: OVCAR-3
OVCAR-8 = test system: OVCAR-8
U-251 = test system: U-251

SMILES | GI50 (ACHN) | GI50 (HOP-92) | GI50 (A549) | GI50 (HCC 2998) | GI50 (SW-620) | GI50 (DU-145) | GI50 (COLO 205) | GI50 (SK-OV-3) | GI50 (OVCAR-4) | GI50 (MCF7) | GI50 (SN12C) | GI50 (786-0) | GI50 (HCT-116) | GI50 (SF-539) | GI50 (KM12) | GI50 (CCRF-CEM) | GI50 (T47D) | GI50 (OVCAR-3) | GI50 (OVCAR-8) | GI50 (U-251)
Cc1ccc(C2=Nn3c(nc4sc(C)c(C)c4c3=O)SC2)cc1 | > 100 µM (inactive) | > 100 µM (inactive) | > 100 µM (inactive) | > 100 µM (inactive) | > 100 µM (inactive) | > 100 µM (inactive) | > 100 µM (inactive) | > 100 µM (inactive) | > 100 µM (inactive) | > 100 µM (inactive) | > 100 µM (inactive) | > 100 µM (inactive) | > 100 µM (inactive) | > 100 µM (inactive) | > 100 µM (inactive) | > 10 µM (inactive) | > 100 µM (inactive) | > 100 µM (inactive) | > 100 µM (inactive) | > 100 µM (inactive)
Cc1ccc(NC(=O)CC(=O)n2nc(C)c(/N=N/c3cccc(C)c3)c2C)cc1 | > 100 µM (inactive) | 14 µM (inactive) | > 100 µM (inactive) | > 100 µM (inactive) | > 100 µM (inactive) | > 100 µM (inactive) | > 100 µM (inactive) | > 100 µM (inactive) | > 100 µM (inactive) | > 100 µM (inactive) | > 100 µM (inactive) | > 100 µM (inactive) | > 100 µM (inactive) | > 100 µM (inactive) | > 100 µM (inactive) | 86.3 µM (inactive) | > 100 µM (inactive) | > 100 µM (inactive) | > 100 µM (inactive) | > 100 µM (inactive)
Cc1c2c(OCC(O)CN3CCN(c4ccccc4)CC3)nn(C)c(=O)c2c(C)n1-c1ccccc1 (stereo not drawn) | 20.6 µM (inactive) | 44.4 µM (inactive) | 24.7 µM (inactive) | 29.7 µM (inactive) | 29.9 µM (inactive) | 37.9 µM (inactive) | 20.3 µM (inactive) | 43 µM (inactive) | 30.3 µM (inactive) | 18.4 µM (inactive) | 18.5 µM (inactive) | 18.8 µM (inactive) | 17.5 µM (inactive) | 19.2 µM (inactive) | 29.3 µM (inactive) | 31.2 µM (inactive) | 27.5 µM (inactive) | 20.5 µM (inactive) | 33 µM (inactive) | 16.6 µM (inactive)
c1ccc2c(c1)/C(=N\NC1=NCCN1)c1nc3ccccc3nc1-2 | 3.21 µM (inactive) | 2.58 µM (inactive) | 3.86 µM (inactive) | 4.91 µM (inactive) | 1.36 µM (inactive) | 10.6 µM (inactive) | 2.17 µM (inactive) | 1.54 µM (inactive) | 17.6 µM (inactive) | 3.32 µM (inactive) | 8.51 µM (inactive) | 3.91 µM (inactive) | 0.863 µM (active) | 5.31 µM (inactive) | 3.88 µM (inactive) | 3.8 µM (inactive) | 19 µM (inactive) | 3.24 µM (inactive) | 1.35 µM (inactive) | 6.87 µM (inactive)
O=C(/C=C/c1csc(-c2ccccc2)n1)NCc1ccc(C(=O)NCc2ccccc2)cc1 | 67.1 µM (inactive) | 24.4 µM (inactive) | > 100 µM (inactive) | > 100 µM (inactive) | > 100 µM (inactive) | > 100 µM (inactive) | > 100 µM (inactive) | > 100 µM (inactive) | > 100 µM (inactive) | > 100 µM (inactive) | > 100 µM (inactive) | 33 µM (inactive) | > 100 µM (inactive) | 32.3 µM (inactive) | > 100 µM (inactive) | > 100 µM (inactive) | > 100 µM (inactive) | > 100 µM (inactive) | 26.4 µM (inactive) | 32.9 µM (inactive)
CCN(CC)c1ccc(/C=C/c2ccnc3ccccc23)cc1 | > 100 µM (inactive) | > 100 µM (inactive) | > 100 µM (inactive) | > 100 µM (inactive) | > 100 µM (inactive) | > 100 µM (inactive) | > 100 µM (inactive) | > 100 µM (inactive) | > 100 µM (inactive) | > 100 µM (inactive) | > 100 µM (inactive) | > 100 µM (inactive) | > 100 µM (inactive) | > 100 µM (inactive) | > 100 µM (inactive) | > 100 µM (inactive) | > 100 µM (inactive) | > 100 µM (inactive) | – | > 100 µM (inactive)
O=C1c2ccccc2C(=O)c2c1oc1cc(O)c(Cl)cc21 | 7 µM (inactive) | 8.13 µM (inactive) | 3.01 µM (inactive) | 4.62 µM (inactive) | 8.45 µM (inactive) | 4.89 µM (inactive) | 1.72 µM (inactive) | 17.2 µM (inactive) | 8.18 µM (inactive) | 8.11 µM (inactive) | 7.98 µM (inactive) | 10.8 µM (inactive) | 5.27 µM (inactive) | 5.41 µM (inactive) | 6.35 µM (inactive) | 8.71 µM (inactive) | 16.5 µM (inactive) | 2.61 µM (inactive) | 7.38 µM (inactive) | 5.36 µM (inactive)
CC(C)/C=N\n1c(N)c(C#N)c(C#N)c1C(C)C | 20.3 µM (inactive) | 13 µM (inactive) | 25.2 µM (inactive) | 13.4 µM (inactive) | 38.1 µM (inactive) | 35.6 µM (inactive) | 18.7 µM (inactive) | 45.1 µM (inactive) | 18.2 µM (inactive) | 38.5 µM (inactive) | 28.6 µM (inactive) | 40.2 µM (inactive) | 24.5 µM (inactive) | 18.9 µM (inactive) | 27 µM (inactive) | 19.9 µM (inactive) | 16.5 µM (inactive) | 11.7 µM (inactive) | 20.3 µM (inactive) | 28.9 µM (inactive)
ClCC[N+]12CC[N+](CCCl)(CC1)C2 | > 100 µM (inactive) | > 100 µM (inactive) | > 100 µM (inactive) | > 100 µM (inactive) | > 100 µM (inactive) | > 100 µM (inactive) | > 100 µM (inactive) | > 100 µM (inactive) | > 100 µM (inactive) | > 100 µM (inactive) | > 100 µM (inactive) | > 100 µM (inactive) | > 100 µM (inactive) | > 100 µM (inactive) | > 100 µM (inactive) | > 100 µM (inactive) | > 100 µM (inactive) | > 100 µM (inactive) | > 100 µM (inactive) | > 100 µM (inactive)
CCOC(=O)/C=C(\C)Sc1cc(O)c2ccccc2c1O | 13.8 µM (inactive) | 21.2 µM (inactive) | 28.1 µM (inactive) | 8.97 µM (inactive) | 5.08 µM (inactive) | 9.02 µM (inactive) | 17.3 µM (inactive) | 34.4 µM (inactive) | 16.1 µM (inactive) | 13.9 µM (inactive) | 29.2 µM (inactive) | 19.8 µM (inactive) | 6.47 µM (inactive) | 21.5 µM (inactive) | 28.6 µM (inactive) | 6.64 µM (inactive) | 2.94 µM (inactive) | 28.6 µM (inactive) | 16.5 µM (inactive) | 20.3 µM (inactive)
O=C1/C(=C/c2ccccc2)CN(C(=O)OCc2ccccc2)C/C1=C\c1ccccc1 | 12.5 µM (inactive) | > 69.5 µM (inactive) | 28.1 µM (inactive) | 7.06 µM (inactive) | 1.81 µM (inactive) | 54.8 µM (inactive) | 16.1 µM (inactive) | 24.4 µM (inactive) | 11.6 µM (inactive) | 6.43 µM (inactive) | 13.8 µM (inactive) | 11.5 µM (inactive) | 0.345 µM (active) | 18.3 µM (inactive) | 5.47 µM (inactive) | 2.08 µM (inactive) | 41.4 µM (inactive) | 1.68 µM (inactive) | 13.1 µM (inactive) | 4.51 µM (inactive)
ON[C@H]1C[C@@H](n2cnc3c(NC4CC4)ncnc32)[C@H](O)[C@@H]1O | > 100 µM (inactive) | > 100 µM (inactive) | > 100 µM (inactive) | > 100 µM (inactive) | > 100 µM (inactive) | > 100 µM (inactive) | > 100 µM (inactive) | > 100 µM (inactive) | > 100 µM (inactive) | > 100 µM (inactive) | > 100 µM (inactive) | > 100 µM (inactive) | > 100 µM (inactive) | > 100 µM (inactive) | > 100 µM (inactive) | > 100 µM (inactive) | > 100 µM (inactive) | > 100 µM (inactive) | > 100 µM (inactive) | > 100 µM (inactive)
CCC[N+](C)(C)CCCNC(=O)c1c(O)c2ccccc2[nH]c1=O | > 100 µM (inactive) | > 100 µM (inactive) | 46.3 µM (inactive) | > 100 µM (inactive) | > 100 µM (inactive) | > 100 µM (inactive) | > 100 µM (inactive) | > 100 µM (inactive) | > 100 µM (inactive) | > 100 µM (inactive) | > 100 µM (inactive) | > 100 µM (inactive) | > 100 µM (inactive) | > 100 µM (inactive) | > 100 µM (inactive) | > 100 µM (inactive) | > 100 µM (inactive) | > 100 µM (inactive) | > 100 µM (inactive) | > 100 µM (inactive)
CSc1ccc(-c2cc(-c3nc4ccccc4[nH]3)no2)cc1 | 25.2 µM (inactive) | 50.6 µM (inactive) | 23.6 µM (inactive) | 16.2 µM (inactive) | 37 µM (inactive) | 13.6 µM (inactive) | 23.9 µM (inactive) | 70.5 µM (inactive) | 0.0562 µM (active) | 9.02 µM (inactive) | 50.2 µM (inactive) | 55.1 µM (inactive) | 32.5 µM (inactive) | 24.7 µM (inactive) | 9.91 µM (inactive) | 18.4 µM (inactive) | 5.77 µM (inactive) | 22.1 µM (inactive) | 35 µM (inactive) | –

Source: ChEMBL document CHEMBL1201862, “PubChem BioAssay data set” (2004)
